Reference: article PMC11172478, “1,3,5-Triazine as Branching Connector for the Construction of Novel Antimicrobial Peptide Dendrimers: Synthesis and Biological Characterization” (International Journal of Molecular Sciences, 2024)
Values after ≈ are worked out from the molar mass of the structure shown. Starred links: 1 amine or outer side, 2 acyl side, 3 side chain; linkers in the order of their positions; H or OH if unused. Positions of bridges follow the written chain, without caps; N, C: chain ends. Residues, ends and D or L forms follow the SMILES beside them. Chains are numbered I, II in the order given. X1 = O=C(c1ccc(Oc2nc(NCCN[*:2])nc(NCCN[*:3])n2)cc1)[*:1]

Columns and labels:
[1] = system: Hep G2 hepatocellular carcinoma cell line; test: Cytotoxicity, resazurin reduction; assay type: cell-based, human; details: HepG2 cells, 24 h, resazurin fluorescence
Procedure: (§1) The cytotoxicity assay was performed in the human hepatocellular carcinoma cell line Hep G2 ATCC and murine L-929 fibroblasts (NCTC clone 929, ECACC 88102702) obtained from the laboratory of Dr. Pérez-Tomás (Cancer Cell Biology, University of Barcelona). The cytotoxicity of the selected peptides was determined by measuring the intracellular reduction of resazurin sodium salt (Sigma-Aldrich, St. Louis, MO, USA). Briefly, HepG2 and L-929 cells were grown in RPMI 1640 or MEM medium, respectively (Biochrom AG, Berlin, Germany), supplemented with 10% fetal bovine serum. Cells from pre-confluent cultures were harvested with trypsin-EDTA and maintained at 37 °C in 5% CO2. Then, 100 µL of each cell line was seeded into 96-well flat-bottomed microplates and incubated for 24 h at 37 °C. The medium was then replaced with 200 μL of medium containing the dendrimers at concentrations ranging from 64 to 0.125 μg/mL and the microplates were incubated for 24 h at 37 °C. Next, 20 μL of resazurin was added to each well and the plates were incubated under the same conditions for 24 h. Fluorescence was measured using a multiwell scanning spectrophotometer at an excitation wavelength of 530 nm and an emission wavelength of 590 nm. Cytotoxicity was then calculated by comparing the fluorescence of the treated and untreated cells (Figure S22).

L-929 fibroblasts = test: Cytotoxicity, resazurin reduction; assay type: cell-based, murine; details: L-929 cells, 24 h, resazurin fluorescence
Procedure: as §1

E. coli ATCC 25922 [2] = test: Atomic force microscopy of treated bacteria; assay type: cell-based; details: E. coli ATCC 25922, dendrimer at MIC, 4 h, 37 °C
Procedure: E. coli ATCC 25922 was grown at 37 °C in Mueller Hinton cation-adjusted broth to an optical density of 0.25 at 625 nm. Dendrimers were added to a starting inoculum of 10^6 CFU/mL and incubated for 4 h at 37 °C with shaking. Untreated E. coli was included as a control. Cells in 1 mL of culture were centrifuged at 5000 rpm for 5 min and washed three times with 1 mL of sterile water. The bacterial cells were then resuspended in 100 µL of sterile water and a 10 µL drop was applied to a freshly cleaved mica surface and allowed to dry for approximately 10 min at room temperature.
The disk surfaces were analyzed by atomic force microscopy using an AFM XE-70 (Park Systems, Suwon, Korea) in non-contact mode with an ACTA 10M cantilever. […] The AFM images were processed using a scanning probe image processor XEI (Park Systems), correcting the plane of the AFM image for any coupling of the lateral plane and the z-axis caused by the instrument.

P. aeruginosa ATCC 27853 [3] = test: Bacterial growth curves; assay type: cell-based; details: P. aeruginosa ATCC 27853, TSB, MIC, ½ MIC and ¼ MIC, 24 h, 37 °C, OD 850 nm
Procedure: The real-time effect of the peptide dendrimers was examined on the growth curves of E. coli ATCC 25922 and P. aeruginosa ATCC 27853. Volumes of 10 mL of TSB liquid cultures containing 1–5 × 10^5 CFU/mL in the logarithmic phase were adjusted in Falcon tubes. Peptide dendrimers were then added at MIC and sub-inhibitory concentrations (½ MIC and ¼ MIC). Incubation was performed in RTS-1C real-time reverse spin bioreactors RTS-1 (Biosan) for 24 h at 37 °C and 2000 rpm. Growth was measured noninvasively as optical density (OD 850 nm) every 15 min.

S. aureus ATCC 29213 = assay type: cell-based; details: ATCC 29213, 24 h
Procedure: (§2) The antimicrobial activity of the dendrimers was evaluated against E. coli ATCC 25922, P. aeruginosa ATCC 27853 and S. aureus ATCC 29213 strains. The MIC values were determined by the broth microdilution method. Briefly, the different strains were grown in Muller Hinton broth cation adjusted (MHBCA) medium overnight at 37 °C with shaking at 200 rpm. The bacterial cultures were then adjusted to OD625nm of 0.08–0.1, and 5 μL of each diluted suspension was added to 96-well plates previously filled with MHBCA and serially diluted peptides. Plates were incubated for 24 h at 37 °C. Finally, the MIC was determined macroscopically, based on the visual turbidity of the wells.

E. coli ATCC 25922 [4] = assay type: cell-based; details: broth microdilution, MHBCA, 24 h, 37 °C, visual turbidity
Procedure: as §2

P. aeruginosa ATCC 27853 [5] = assay type: cell-based; details: broth microdilution, MHBCA, 24 h, 37 °C, visual turbidity
Procedure: as §2

E. coli 7259 = test: microbe, parasite or virus in culture; assay type: cell-based; details: 7259, 24 h
Procedure: (§3) E. coli ATCC 25922, P. aeruginosa ATCC 27853, S. aureus ATCC 29213, P. aeruginosa 666 SJD (ciprofloxacin-resistant), P. aeruginosa P12, P13, P15, P16 and P17 (MDR isolates) and E. coli 7987, 5545, 8248, 13974, 7259 and 208691 (MDR isolates) from our own collection were included in the present study.
as §2

E. coli 8248 = test: microbe, parasite or virus in culture; assay type: cell-based; details: 8248, 24 h
Procedure: as §3, §2

P. aeruginosa P17 = test: microbe, parasite or virus in culture; assay type: cell-based; details: P17, 24 h
Procedure: as §3, §2

P. aeruginosa P13 = test: microbe, parasite or virus in culture; assay type: cell-based; details: P13, 24 h
Procedure: as §3, §2

E. coli 5545 = test: microbe, parasite or virus in culture; assay type: cell-based; details: 5545, 24 h
Procedure: as §3, §2

P. aeruginosa P15 = test: microbe, parasite or virus in culture; assay type: cell-based; details: P15, 24 h
Procedure: as §3, §2

E. coli 13974 = test: microbe, parasite or virus in culture; assay type: cell-based; details: 13974, 24 h
Procedure: as §3, §2

P. aeruginosa P12 = test: microbe, parasite or virus in culture; assay type: cell-based; details: P12, 24 h
Procedure: as §3, §2

P. aeruginosa P16 = test: microbe, parasite or virus in culture; assay type: cell-based; details: P16, 24 h
Procedure: as §3, §2

E. coli 208691 = test: microbe, parasite or virus in culture; assay type: cell-based; details: 208691, 24 h
Procedure: as §3, §2

E. coli 7987 = test: microbe, parasite or virus in culture; assay type: cell-based; details: 7987, 24 h
Procedure: as §3, §2

Row | SMILES | % Cytotoxicity at 64µg/mL, HepG2 [1] | % Cytotoxicity at 64µg/mL, L-929 (L-929 fibroblasts) | bacterial surface alteration by AFM (in words) (E. coli ATCC 25922 [2]) | effect on growth curve (in words) (P. aeruginosa ATCC 27853 [3]) | MIC S. aureus ATCC 29213 (S. aureus ATCC 29213) | MIC E. coli ATCC 25922 (E. coli ATCC 25922 [4]) | MIC P. aeruginosa ATCC 27853 (P. aeruginosa ATCC 27853 [5]) | MIC (E. coli 7259) | MIC (E. coli 8248) | MIC (P. aeruginosa P17) | MIC (P. aeruginosa P13) | MIC (E. coli 5545) | MIC (P. aeruginosa P15) | MIC (E. coli 13974) | MIC (P. aeruginosa P12) | MIC (P. aeruginosa P16) | MIC (E. coli 208691) | MIC (E. coli 7987)
1 | CC(C)C[C@H](NC(=O)[C@H](CCCCN)NC(=O)[C@H](CC(C)C)NC(=O)[C@H](CCCCN)NC(=O)[C@H](CC(C)C)Nc1nc(NCCNC(=O)[C@H](CCCCN)NC(=O)[C@H](CC(C)C)NC(=O)[C@H](CCCCN)NC(=O)[C@H](CC(C)C)NC(=O)[C@H](CCCCN)NC(=O)[C@@H](N)CC(C)C)nc(NCCNC(=O)[C@H](CCCCN)NC(=O)[C@H](CC(C)C)NC(=O)[C@H](CCCCN)NC(=O)[C@H](CC(C)C)NC(=O)[C@H](CCCCN)NC(=O)[C@@H](N)CC(C)C)n1)C(=O)N[C@@H](CCCCN)C(N)=O [Dendrimer 2, H-[(LK)3-EDA]2-TA-(LK)3-NH2] | 0% | 0% | significant surface damages | complete growth inhibition occurred at the MIC | >64 µg/mL | 2 µg/mL (≈ 0.839 µM) | 16 µg/mL (≈ 6.71 µM) | 2 µg/mL (≈ 0.839 µM) | 8 µg/mL (≈ 3.36 µM) | 16 µg/mL (≈ 6.71 µM) | 32 µg/mL (≈ 13.4 µM) | 8 µg/mL (≈ 3.36 µM) | 16 µg/mL (≈ 6.71 µM) | 8 µg/mL (≈ 3.36 µM) | 32 µg/mL (≈ 13.4 µM) | 32 µg/mL (≈ 13.4 µM) | 8 µg/mL (≈ 3.36 µM) | 4 µg/mL (≈ 1.68 µM)
2 | CC(C)C[C@H](NC(=O)c1ccc(Oc2nc(NCCNC(=O)[C@H](CCCCN)NC(=O)[C@H](CC(C)C)NC(=O)[C@H](CCCCN)NC(=O)[C@H](CC(C)C)NC(=O)[C@H](CCCCN)NC(=O)[C@@H](N)CC(C)C)nc(NCCNC(=O)[C@H](CCCCN)NC(=O)[C@H](CC(C)C)NC(=O)[C@H](CCCCN)NC(=O)[C@H](CC(C)C)NC(=O)[C@H](CCCCN)NC(=O)[C@@H](N)CC(C)C)n2)cc1)C(=O)N[C@@H](CCCCN)C(=O)N[C@@H](CC(C)C)C(=O)N[C@@H](CCCCN)C(=O)N[C@@H](CC(C)C)C(=O)N[C@@H](CCCCN)C(N)=O [Dendrimer 1, H-[(LK)3]2-(EDA)2-TA-PHBA-(LK)3-NH2] (I: LKLKLK-NH2 / II: H-LKLKLK / III: H-LKLKLK; linker I:N-II:C-III:C via X1) | 0% | 2.8% | significant surface damages | noticeable growth delay | >64 µg/mL | 8 µg/mL (≈ 3.19 µM) | 16 µg/mL (≈ 6.39 µM) | 32 µg/mL (≈ 12.8 µM) | 8 µg/mL (≈ 3.19 µM) | 16 µg/mL (≈ 6.39 µM) | 64 µg/mL (≈ 25.6 µM) | 8 µg/mL (≈ 3.19 µM) | >128 µg/mL | 8 µg/mL (≈ 3.19 µM) | >128 µg/mL | 64 µg/mL (≈ 25.6 µM) | 32 µg/mL (≈ 12.8 µM) | 8 µg/mL (≈ 3.19 µM)
